Assay results taken from patent publication US20150105252A1, “SUBSTITUTED PYRAZOLES AS HERBICIDES” (E I DU PONT DE NEMOURS AND COMPANY, priority 2013, published 2015).

How the values were obtained:
pigweed = assay: Test A preemergence; type: in vivo, Amaranthus retroflexus; conditions: preemergence
Outline: (§1)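 Greenhouse test in loam soil/sand blend; compounds formulated in non-phytotoxic solvent with surfactant, applied as preemergence directed soil spray or postemergence to plants 2–10 cm tall at one- to two-leaf stage. Injury rated visually versus untreated controls after approximately 10 days on a 0 (no effect) to 100 (complete control) scale.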

wheat [1] = assay: Test A postemergence; type: in vivo, Triticum aestivum
Outline: as §1

rice = assay: Test B flood; type: in vivo, Oryza sativa; conditions: 250 g ai/ha, visual rating on 0 to 100 scale (0 no effect, 100 complete control), 13 to 15 days
Outline: (§2)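 Plants were grown to the 2-leaf stage and pots flooded to 3 cm above soil. Compounds were applied directly into the paddy water, with depth kept for the test. After 13–15 days in greenhouse, response was rated visually against controls on a 0 (no effect) to 100 (complete control) scale.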

sedge, umbrella = assay: Test B flood; type: in vivo, Cyperus difformis; conditions: 250 g ai/ha, visual rating on 0 to 100 scale (0 no effect, 100 complete control), 13 to 15 days
Outline: as §2

wheat [2] = assay: Test C preemergence; type: in vivo, Triticum aestivum
Outline: (§3)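 Postemergence values come from plants sprayed at the 1- to 4-leaf stage (2–18 cm) in peat moss–vermiculite medium; preemergence values from seeds treated in a loam–sand blend. Both evaluated visually against controls after 13–15 greenhouse days, scale 0–100.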

galium = assay: Test C preemergence; type: in vivo, Galium aparine
Outline: as §3

corn = assay: Test C preemergence; type: in vivo, Zea mays
Outline: as §3

lambsquarters [3] = assay: Test C preemergence; type: in vivo, Chenopodium album
Outline: as §3

ragweed = assay: Test C preemergence; type: in vivo, Ambrosia elation
Outline: as §3

ryegrass, Italian = assay: Test C postemergence; type: in vivo, Lolium multiflorum
Outline: as §3

crabgrass, large = assay: Test C postemergence; type: in vivo, Digitaria sanguinalis; conditions: for Plant response rating (scale of 0 to 100 where 0 is no effect and 100 is complete control), Crabgrass, Large: Postemergence, 31 g ai/ha, visually evaluated after 13 to 15 days; for Crabgrass, Large plant response rating / Plant response rating, Crabgrass, Large: postemergence; for Crabgrass, Large plant response rating: 62 g ai/ha, scale 0 to 100
Outline: as §3

lambsquarters [4] = assay: Test C postemergence; type: in vivo, Chenopodium album; conditions: for Plant response rating (scale of 0 to 100 where 0 is no effect and 100 is complete control), Lambsquarters: Postemergence, 31 g ai/ha, visually evaluated after 13 to 15 days; for Lambsquarters plant response rating / Plant response rating, Lambsquarters: postemergence; for Lambsquarters plant response rating: 62 g ai/ha, scale 0 to 100
Outline: as §3

kochia = assay: Test C postemergence; type: in vivo, Kochia scoparia; conditions: for Plant response rating (scale of 0 to 100 where 0 is no effect and 100 is complete control), Kochia: Postemergence, 31 g ai/ha, visually evaluated after 13 to 15 days; for Kochia plant response rating / Plant response rating, Kochia: postemergence; for Kochia plant response rating: 62 g ai/ha, scale 0 to 100
Outline: as §3

[5] = 500 g ai/ha, visual injury after approx. 10 days, 0 to 100 scale (0 no effect, 100 complete control)
[6] = preemergence, 31 g ai/ha, visual rating, scale 0 to 100 (0 no effect, 100 complete control), 13 to 15 days
[7] = preemergence, 62 g ai/ha, scale 0 to 100 (0 no effect, 100 complete control), 13 to 15 days
[8] = preemergence, 125 g ai/ha, 13 to 15 days, scale 0 to 100, 0 = no effect, 100 = complete control
[9] = preemergence, 250 g ai/ha, scale 0 to 100, 0 is no effect, 100 is complete control
[10] = postemergence, 250 g ai/ha, scale 0 to 100 (0 no effect, 100 complete control)
[11] = postemergence, 125 g ai/ha, scale 0 to 100, 0 no effect, 100 complete control
[12] = 250 g ai/ha, scale 0 to 100 (0 no effect, 100 complete control)
[13] = 125 g ai/ha, scale 0 to 100, 0 no effect, 100 complete control
[14] = preemergence, 125 g ai/ha, scale 0 to 100, 0 is no effect, 100 is complete control

## CCCc1cc(C(=O)NC(C)C)nn1Cc1ccnc(C(F)(F)F)c1 [Compound 186]
pigweed; 125 g ai/ha, visual injury approx. 10 days after treatment
  Pigweed plant response rating (0 to 100 scale): 0
pigweed; [5]
  Pigweed plant response rating: 0
Wheat [1]; Postemergence, 125 g ai/ha, 0 to 100 scale, 0 no effect, 100 complete control
  Wheat plant response rating: 0
Wheat [1]; Postemergence, 500 g ai/ha, 0 to 100 scale (0 no effect, 100 complete control)
  Wheat plant response rating: 90
rice
  Plant response rating, Rice: 75
sedge, umbrella
  Plant response rating, Sedge, Umbrella: 80
Wheat [2]; [6]
  Wheat plant response rating: 80
Wheat [2]; [7]
  Wheat plant response rating: 90
Wheat [2]; [8]
  Plant response rating, Wheat: 90
Wheat [2]; [9]
  Wheat plant response rating: 90
galium; [6]
  Galium plant response rating: 50
galium; [7]
  Galium plant response rating: 100
galium; [8]
  Plant response rating, Galium: 100
galium; [9]
  Galium plant response rating: 95
corn; [6]
  Corn plant response rating: 55
corn; [7]
  Corn plant response rating: 85
corn; [8]
  Plant response rating, Corn: 95
corn; [9]
  Corn plant response rating: 98
Lambsquarters [3]; [6]
  Lambsquarters plant response rating: 100
Lambsquarters [3]; [7]
  Lambsquarters plant response rating: 100
Lambsquarters [3]; [8]
  Plant response rating, Lambsquarters: 100
Lambsquarters [3]; [9]
  Lambsquarters plant response rating: 100
ragweed; [6]
  Ragweed plant response rating: 75
ragweed; [7]
  Ragweed plant response rating: 100
ragweed; [8]
  Plant response rating, Ragweed: 95
ragweed; [9]
  Ragweed plant response rating: 98
ryegrass, Italian; [10]
  Plant response rating, Ryegrass, Italian: 60
ryegrass, Italian; [11]
  Plant response rating, Ryegrass, Italian: 10
crabgrass, large
  Plant response rating (scale of 0 to 100 where 0 is no effect and 100 is complete control), Crabgrass, Large: 5
  Crabgrass, Large plant response rating: 5
crabgrass, large; [12]
  Plant response rating, Crabgrass, Large: 80
crabgrass, large; [13]
  Plant response rating, Crabgrass, Large: 20
Lambsquarters [4]
  Plant response rating (scale of 0 to 100 where 0 is no effect and 100 is complete control), Lambsquarters: 95
  Lambsquarters plant response rating: 65
Lambsquarters [4]; [12]
  Plant response rating, Lambsquarters: 98
Lambsquarters [4]; [13]
  Plant response rating, Lambsquarters: 75
kochia
  Plant response rating (scale of 0 to 100 where 0 is no effect and 100 is complete control), Kochia: 80
  Kochia plant response rating: 85
kochia; [12]
  Plant response rating, Kochia: 95
kochia; [13]
  Plant response rating, Kochia: 90

## CCc1cc(C(=O)NCC(F)(F)F)nn1Cc1nc(C(F)(F)F)nn1C [Compound 107]
pigweed; 125 g ai/ha, visual injury, 0 to 100 scale, approx. 10 days
  Pigweed plant response rating: 100
pigweed; [5]
  Pigweed plant response rating: 100
Wheat [1]; Postemergence, 500 g ai/ha, visual rating after approx. 10 days, 0 to 100 scale (0 no effect, 100 complete control)
  Wheat plant response rating: 80
Wheat [1]; postemergence, 125 g ai/ha, about 10 days, visual rating on 0 to 100 scale (0 no effect, 100 complete control)
  Wheat plant response rating: 30
rice
  Plant response rating, Rice: 30
sedge, umbrella
  Plant response rating, Sedge, Umbrella: 80
Wheat [2]; Preemergence, 250 g ai/ha
  Plant response rating (scale of 0 to 100), Wheat: 50
Wheat [2]; [6]
  Wheat plant response rating: 5
Wheat [2]; [7]
  Wheat plant response rating: 15
Wheat [2]; [14]
  Wheat plant response rating: 50
galium; Preemergence, 250 g ai/ha
  Plant response rating (scale of 0 to 100), Galium: 100
galium; [6]
  Galium plant response rating: 75
galium; [7]
  Galium plant response rating: 90
galium; [14]
  Galium plant response rating: 95
corn; Preemergence, 250 g ai/ha
  Plant response rating (scale of 0 to 100), Corn: 95
corn; [6]
  Corn plant response rating: 30
corn; [7]
  Corn plant response rating: 45
corn; [14]
  Corn plant response rating: 90
Lambsquarters [3]; Preemergence, 250 g ai/ha
  Plant response rating (scale of 0 to 100), Lambsquarters: 100
Lambsquarters [3]; [6]
  Lambsquarters plant response rating: 100
Lambsquarters [3]; [7]
  Lambsquarters plant response rating: 100
Lambsquarters [3]; [14]
  Lambsquarters plant response rating: 100
ragweed; Preemergence, 250 g ai/ha
  Plant response rating (scale of 0 to 100), Ragweed: 100
ragweed; [6]
  Ragweed plant response rating: 50
ragweed; [7]
  Ragweed plant response rating: 98
ragweed; [14]
  Ragweed plant response rating: 100
ryegrass, Italian; Postemergence, 31 g ai/ha, visually evaluated after 13 to 15 days
  Plant response rating (scale of 0 to 100 where 0 is no effect and 100 is complete control), Ryegrass, Italian: 0
ryegrass, Italian; postemergence, 62 g ai/ha, scale 0 to 100
  Ryegrass, Italian plant response rating: 5
ryegrass, Italian; [10]
  Plant response rating, Ryegrass, Italian: 5
ryegrass, Italian; [11]
  Plant response rating, Ryegrass, Italian: 5
crabgrass, large
  Plant response rating (scale of 0 to 100 where 0 is no effect and 100 is complete control), Crabgrass, Large: 5
  Crabgrass, Large plant response rating: 30
crabgrass, large; [12]
  Plant response rating, Crabgrass, Large: 85
crabgrass, large; [13]
  Plant response rating, Crabgrass, Large: 45
Lambsquarters [4]
  Plant response rating (scale of 0 to 100 where 0 is no effect and 100 is complete control), Lambsquarters: 40
  Lambsquarters plant response rating: 40
Lambsquarters [4]; [12]
  Plant response rating, Lambsquarters: 90
Lambsquarters [4]; [13]
  Plant response rating, Lambsquarters: 70
kochia
  Plant response rating (scale of 0 to 100 where 0 is no effect and 100 is complete control), Kochia: 50
  Kochia plant response rating: 85
kochia; [12]
  Plant response rating, Kochia: 90
kochia; [13]
  Plant response rating, Kochia: 85
